{"source": "patent US12594282B2", "about": "“Use of small molecule compounds in the treatment of diseases mediated by lung epithelial cell injury and/or vascular endothelial cell injury” (Guangzhou Cellprotek Pharmaceutical Co., Ltd., priority 2020, dated 2026)", "key": {"[1]": {"system": "LPS-induced acute lung injury", "assay": "LPS-induced acute lung injury in rats (HE pathology, Smith score)", "format": "in vivo, rat", "conditions": "for lung injury pathological score vs LPS model group: tail vein every 6 h x4, 24 h after LPS 6.4 mg/kg", "protocol": "Animal grouping: 60 qualified rats with uniform body weight were selected and included in the experiment, and were randomly divided into 6 groups according to body weight, 10 rats/group. The animal grouping and the drug treatment dose of each group were as follows:\nDrug administration: Test drugs were administered by tail vein at 0.3 mL/100 g body weight, hydrocortisone (25 mg/kg) was administered intraperitoneally at 0.5 mL/100 g body weight; the first administration for all the test agents were performed 0.5 h before LPS administration in the model. The test drug solvent and YC-6 were intravenously injected once every 6 h for a total of 4 injections, and the hydrocortisone (HC) group was intraperitoneally injected once every 12 h for a total of 2 injections.\nAfter the rats were weighed and anesthetized by isoflurane, they were fixed in a supine position. The hair in the skin of the neck was removed, the skin of the neck was sterilized with 75% ethanol, and incised in the middle, after which the subcutaneous tissue was bluntly separated, and the upper trachea was exposed. 8 mg/mL LPS solution was injected into the trachea with a syringe, 0.2 mL/rat, and each rat was calculated as having body weight of […], and the dose was 6.4 mg/kg. Immediately after injection, the rats were erected, shaken, and rotated to distribute the LPS solution evenly in the lungs. The skin was sutured and disinfected with iodophor.\n24 h after LPS injection, the animals were anesthetized by intraperitoneal injection of 20% […] solution at a volume of 6 mL/kg body weight. After the abdominal aorta was bled till the animal was dead, the thoracic cavity was exposed, and the lung tissue was collected. The left lung was fixed in 10% paraformaldehyde solution for 48 hours, after which the coronal plane of the left lung was cross-sectioned into two equal-width upper and lower parts, and then the lower half of the left lung was cross-sectioned into two equal-width parts according to the coronal plane. The sagittal plane of the upper half of the left lung and the coronal plane of the two lower half of the left lung were embedded in a paraffin block, sectioned and stained with hematoxylin-eosin (HE).\nTissue dehydration and paraffin embedding: The tissue was taken out of the fixative and successively immersed in 50% ethanol (30 min)-70% ethanol (overnight)-80% ethanol (30 min)-90% ethanol (30 min)-95% ethanol (30 min)-absolute ethanol (2 times, 30 min each time)-xylene (2 times, 5˜10 min each time, until the sample was completely transparent)-62° C. paraffin (3 times, 1 hour each time), followed by tissue embedding. Tissue paraffin sectioning: The thickness was 3 μm, the sections were dried on a microtome, and then placed in a 37° C. oven to dry overnight, and then used for HE staining. […]"}, "[2]": {"system": "acute hypobaric hypoxia-induced lung injury", "assay": "Acute hypobaric hypoxia-induced lung injury in Macaca fascicularis (HE pathology)", "format": "in vivo", "conditions": "7500 meters for 48 hours", "protocol": "Twenty-four healthy male Macaca fascicularis, 6 to 6.5 years-old, weighted 6.5-7.5 kg, were purchased from Kangda Laboratory Animal Center, Gaoyao City, Guangdong, China, in which 17 male Macaca fascicularis were divided into 3 groups, as shown in the following table:\nThree Macaca fascicularis housed in the animal room were randomly selected each time. For each animal, 10 ml of blood was collected, and 10 ml of glucose normal saline was injected intravenously, and marked. The animals were then housed in a low-pressure chamber for 1 day to acclimate to the experimental environment. In the acute hypobaric hypoxia group, the altitude was simulated to 3000 meters at a speed of 3 m/s; after the animals stayed in the low-pressure chamber at a simulated altitude of 3000 meters for 30 minutes, 10 ml of blood was taken from each animal and 10 ml of glucose saline was injected intravenously; the altitude was then simulated to 4500 meters at a speed of 3 m/s; after the animals stayed in the low-pressure chamber at a simulated altitude of 4500 meters for 30 minutes, 10 ml of blood was taken from each animal and 10 ml of glucose saline was injected intravenously; the altitude was simulated to 6000 meters at a speed of 3 m/s; after the animals stayed in the low-pressure chamber at a simulated altitude of 6000 meters for 30 minutes, 10 ml of blood was taken from each animal and 10 ml of glucose saline was injected intravenously; the altitude was simulated to 7500 meters at a speed of 2 m/s; after the animals stayed at a simulated altitude of 7500 meters in the low-pressure chamber for 24 hours, the altitude was lowered to 6000 meters at a speed of 3 m/s, and 10 ml of blood was taken from each animal and 10 ml of glucose saline was injected intravenously; the altitude was simulated to 7500 meters at a speed of 2 m/s; after staying at 7500 meters for 48 hours, the altitude was lowered to 6000 meters at a speed of 3 m/s, the animals were anesthetized (0.06 ml/kg ketamine hydrochloride injection, 0.02 ml/kg xylazine hydrochloride injection), and sacrificed by carotid bloodletting, and dissected and subject to sampling, and the samples were then fixed. The Macaca fascicularis in the normobaric normoxia control group were anesthetized (0.06 ml/kg ketamine hydrochloride injection, 0.02 ml/kg xylazine hydrochloride injection) in the plain (an altitude of 352 meters), then sacrificed by carotid bloodletting, and dissected and subject to sampling, and the samples were then fixed. […]"}, "[3]": {"conditions": "12, 40, 120 mg/kg/d, HE staining"}}, "data": [{"smiles": "C[C@@]12CCCC1C1C[C@@H](O)[C@]3(O)C[C@@H](O)CC[C@]3(C)C1CC2", "note": "(stereo partly drawn) [YC-6, 5α-androst-3β,5,6β-triol]", "values": [{"measurement": "lung injury pathological score vs LPS model group", "setting": "[1]; 12 mg/kg/d", "value": "significantly lower pathological scores"}, {"measurement": "lung injury pathological score vs LPS model group", "setting": "[1]; 40 mg/kg/d", "value": "significantly lower pathological scores"}, {"measurement": "lung injury pathological score vs LPS model group", "setting": "[1]; 120 mg/kg/d", "value": "significantly lower pathological scores"}, {"measurement": "alveolar damage vs LPS model group", "setting": "[1]; [3]", "value": "reduced alveolar damage"}, {"measurement": "inflammatory cell infiltration in lung tissue vs LPS model group", "setting": "[1]; [3]", "value": "reduced inflammatory cell infiltration"}, {"measurement": "protective effect (pathological score) compared with 50 mg/kg/d hydrocortisone", "setting": "[1]; low-dose group (12 mg/kg/d), P<0.05", "value": "significantly better protective effect"}, {"measurement": "alveolar septal thickening caused by acute hypobaric hypoxia", "setting": "[2]; 100 mg/kg/two days (i.v. solution and i.m. sustained-release formulation)", "value": "significantly reduced the alveolar septal thickening injury"}, {"measurement": "fibrous hyperplasia of alveolar septa, protein hyaline membrane formation and erythrocyte leakage into the alveolar space", "setting": "[2]; 100 mg/kg/two days", "value": "no such obvious changes were observed"}, {"measurement": "inflammatory infiltration and shedding of damaged lung epithelial cells", "setting": "[2]; 100 mg/kg/two days", "value": "no obvious inflammatory infiltration and shedding of damaged lung epithelial cells were observed"}, {"measurement": "pulmonary vascular congestion and swelling", "setting": "[2]; 100 mg/kg/two days", "value": "significantly inhibited pulmonary vascular congestion and swelling"}]}]}
